In US20210030673A1, “Method and a Compound for Preventing Mammalian Cancer Cell Proliferation and for Treating Cancer” (Oy Granula Ab Ltd., priority 2019, published 2021):
pIC50: −log10 of the molar value. Where two headings read alike, the source gives them in different places.

What was measured:
[1] = test system: metastatic melanoma (WM-266-4) cells; conditions: 100 µM
Protocol: (§2) Cells were seeded with 5000 cells/well on a 96-well plate (Falcon) in RPMI-1640 medium (PC-3 cells) or DMEM medium (WM-266-4 cells) supplemented with 10% fetal bovine serum, 2 mM L-glutamine, 100 U/ml penicillin, and 100 μg/ml streptomycin. The cells were incubating overnight in +37° C., 5% CO2 for the cells to adhere to the plate. The following day, cells were treated with BA or BOA (prepared from stock solutions using DMSO as solvent) in concentrations of 0-200 μM in complete medium in replicate samples and incubated for 48 h. The old medium was thereafter discarded and substituted with 100 μL 10% Cell Counting Kit-8 reagent (Dojindo Molecular Technologies) diluted in serum-free RPMI-1640 medium. The samples were incubated for an additional 1 h prior to analyzing cell viability by measuring the absorbance at 450 nm using a microplate reader (Hidex Sense) according to manufacturer's protocol. Non-treated cells were used as a negative control. 1% DMSO was used to control for effect of solvent. All samples contained 1% or less DMSO. The experiment was repeated at least three independent times for accurate cytotoxicity analysis. The IC50-value was calculated using GraphPad Prism 6 software.

[2] = test system: metastatic melanoma (WM-266-4) cells; assay: Live-cell imaging of WM-266-4 proliferation, BOA; assay type: cell-based, human; conditions: 48-hour treatment
Protocol: (§1) One day prior to the treatment, the cells were counted and plated on 24-well plates (Falcon) and incubated overnight at +37° C. (5% CO2). The following day, the cells were treated betulinic acid (BA) or betulonic acid (BOA) in concentrations of 0, 10, 50, 70, 100, and 150 μM. 1% DMSO was used to control for the effects of the solvent. All samples were made in triplicates. The cells were imaged for 48 h with 2 h intervals (9 images per well) using IncuCyte S3 Live-Cell Analysis System (Essen BioScience).

[3] = test system: metastatic prostate cancer (PC-3) cells; assay: Cytotoxicity assay of BA and BOA (Cell Counting Kit-8), PC-3; conditions: read-out: IC50-value, cell viability, PC-3
Protocol: as §2

[4] = test system: metastatic prostate cancer (PC-3) cells; conditions: 100 µM
Protocol: as §2

[5] = test system: metastatic prostate cancer (PC-3) cells; assay: Live-cell imaging of PC-3 proliferation, BA or BOA; assay type: cell-based, human; conditions: 48-hour treatment
Protocol: as §1

[6] = test system: metastatic melanoma (WM-266-4) cells; assay: Cytotoxicity assay of BA and BOA (Cell Counting Kit-8), WM-266-4; conditions: read-out: IC50-value, cell viability, WM-266-4
Protocol: as §2

[7] = test system: normal human dermal fibroblast (HDF) cells
Description: Results are mean values from three independent experiments (±SEM).

[8] = Cytotoxicity assay of BA and BOA (Cell Counting Kit-8), PC-3; conditions: human, PC-3 metastatic prostate cancer cells
Protocol: as §2

[9] = Cytotoxicity assay of BA and BOA (Cell Counting Kit-8), WM-266-4; conditions: human, WM-266-4 metastatic melanoma cells
Protocol: as §2

[10] = 48 h treatment, complete medium

## C=C(C)[C@@H]1CC[C@]2(C(=O)O)CC[C@]3(C)[C@H](CC[C@@H]4[C@@]5(C)CCC(=O)C(C)(C)[C@@H]5CC[C@]43C)[C@@H]12 [BOA, betulonic acid]
[1]
  viability of WM-266-4 cells: below 20%
[2]
  concentration giving maximal decrease in WM-266-4 proliferation: 50 µM
[3]; [10]
  pIC50: 4.11
[4]
  viability of PC-3 cells: below 20%
[5]
  concentration giving maximum decrease of PC-3 proliferation: 50 µM
[6]; [10]
  pIC50: 4.40
[7]
  effect on HDF cell proliferation: neither BA or BOA had any significant effects on HDF cells

## C=C(C)[C@@H]1CC[C@]2(C(=O)O)CC[C@]3(C)[C@H](CC[C@@H]4[C@@]5(C)CC[C@H](O)C(C)(C)[C@@H]5CC[C@]43C)[C@@H]12 [BA, betulinic acid]
[3]; Homo sapiens, PC-3, 48 h
  pIC50: 4.17
[8]
  viability at 48 h, 100 µM: ~0%
[5]
  concentration giving maximum decrease of PC-3 proliferation: 50 µM
[6]; Homo sapiens, WM 266-4, 48 h
  pIC50: 4.19
[9]
  viability at 48 h, 100 µM: ~0%
[7]
  effect on HDF cell proliferation: neither BA or BOA had any significant effects on HDF cells
